The source of these data is ChEMBL document CHEMBL1154669, “5-Aryl indanones and derivatives as non-steroidal progesterone receptor modulators” (Bioorg Med Chem Lett, 2009).

The target in assay [1] is T1, Progesterone receptor (Homo sapiens, UniProt P06401).
T1 sequence (P06401 whole entry): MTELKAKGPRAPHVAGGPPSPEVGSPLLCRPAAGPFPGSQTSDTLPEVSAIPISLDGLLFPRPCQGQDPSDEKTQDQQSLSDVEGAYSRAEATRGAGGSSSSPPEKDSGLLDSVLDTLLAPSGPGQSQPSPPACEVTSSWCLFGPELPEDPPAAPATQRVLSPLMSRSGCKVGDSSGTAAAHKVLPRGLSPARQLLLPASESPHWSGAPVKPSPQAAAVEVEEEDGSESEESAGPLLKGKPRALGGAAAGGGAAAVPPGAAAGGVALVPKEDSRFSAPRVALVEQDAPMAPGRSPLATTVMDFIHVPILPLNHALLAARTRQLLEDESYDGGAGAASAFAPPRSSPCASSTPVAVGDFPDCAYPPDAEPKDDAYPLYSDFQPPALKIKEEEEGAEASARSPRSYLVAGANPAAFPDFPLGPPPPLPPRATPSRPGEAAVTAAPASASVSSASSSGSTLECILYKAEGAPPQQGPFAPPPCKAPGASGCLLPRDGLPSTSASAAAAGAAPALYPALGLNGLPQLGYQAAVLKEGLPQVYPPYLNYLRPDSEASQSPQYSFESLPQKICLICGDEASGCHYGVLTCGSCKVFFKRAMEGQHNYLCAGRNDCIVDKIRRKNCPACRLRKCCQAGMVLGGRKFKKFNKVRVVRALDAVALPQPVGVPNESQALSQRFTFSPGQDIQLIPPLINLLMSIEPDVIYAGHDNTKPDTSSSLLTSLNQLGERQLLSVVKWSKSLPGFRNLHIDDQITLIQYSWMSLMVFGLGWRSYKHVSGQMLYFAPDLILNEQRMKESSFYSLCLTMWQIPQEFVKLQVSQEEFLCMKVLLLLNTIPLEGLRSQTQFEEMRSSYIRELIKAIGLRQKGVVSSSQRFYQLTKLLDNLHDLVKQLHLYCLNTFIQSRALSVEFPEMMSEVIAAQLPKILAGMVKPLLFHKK
In words: Inhibition of progesterone receptor in human T47D cells assessed as progesteron-induced alkaline phosphatase activity. The format is cell-based.

Assay [2] deals with T1, Progesterone receptor. The assay is described as follows: Agonist activity at progesterone receptor in human T47D cells assessed as alkaline phosphatase activity. The format is functional, cell-based.

Where only a bound is given, the exact number is not on record here.

One may read the IC50 as the concentration needed to halve the response being measured. For `CC1(C)C/C(=N\O)c2ccc(-c3cccc(Cl)c3)cc21`, the IC50 on Progesterone receptor [1] stood at 490 nM.

One may read the EC50 as the concentration giving half of the maximal effect. Regarding `Cn1c(C#N)ccc1-c1ccc2c(c1)C(C)(C)C/C2=N/O`, the EC50 at Progesterone receptor [2] is above 3 µM. For the same compound, the IC50 on Progesterone receptor [1] is 14 nM.

As for `CC1CC(O)c2ccc(-c3ccc(C#N)n3C)cc21` (configuration not stated), the EC50 at Progesterone receptor [2] was above 3 µM. The IC50 on Progesterone receptor [1] amounted to 18 nM.

With `CC1(C)C/C(=N\O)c2ccc(-c3cccc(C#N)c3)cc21`, the IC50 at Progesterone receptor [1] came out at 317 nM.

On to `C#CCC1(O)CC(C)(C)c2cc(-c3ccc(C#N)n3C)ccc21` (configuration not stated), for which, on Progesterone receptor [2], the EC50 is above 3 µM. Further, the IC50 on Progesterone receptor [1] was determined as 3 nM.

On to `CC1C/C(=N/O)c2ccc(-c3ccc(C#N)n3C)cc21` (configuration not stated), for which the EC50 on Progesterone receptor [2] is above 3 µM. On Progesterone receptor [1], the IC50 came out at 65 nM.

With `Cn1c(C#N)ccc1-c1ccc2c(c1)C(C)(C)CC2(C)O` (configuration not stated), the EC50 at Progesterone receptor [2] worked out at 0.001 µM.

Regarding `Cn1c(C#N)ccc1-c1ccc2c(c1)CCC2=O`, the EC50 at Progesterone receptor [2] was above 3 µM. Moreover, at Progesterone receptor [1], the IC50 came to 34 nM.

In the case of `Cn1c(C#N)ccc1-c1ccc2c(c1)C(C)(C)CC2O` (configuration not stated), the EC50 on Progesterone receptor [2] came to 0.019 µM.

Regarding `CC1(C)CC(=O)c2ccc(-c3ccc(Cl)c(Cl)c3)cc21`, the IC50 at Progesterone receptor [1] came out at 79 nM.

Regarding `Cn1c(C#N)ccc1-c1ccc2c(c1)CCC2O` (configuration not stated), the EC50 at Progesterone receptor [2] was above 3 µM. The IC50 on Progesterone receptor [1] amounted to 10 nM.

As for `CCC1(O)CC(C)(C)c2cc(-c3ccc(C#N)n3C)ccc21` (configuration not stated), the concentration giving a half-maximal response (EC50) on Progesterone receptor [2] was found to be 0.002 µM.

`Cc1cccc(-c2ccc3c(c2)C(C)(C)C/C3=N\O)c1`: at Progesterone receptor [1], the IC50 is 316 nM.

On to `Cn1c(C#N)ccc1-c1ccc2c(c1)CC/C2=N/O`, for which the EC50 on Progesterone receptor [2] is above 3 µM. Besides, the IC50 at Progesterone receptor [1] came to 132 nM.

As for `CC1(C)CC(=O)c2ccc(-c3cccc(C#N)c3)cc21`, the IC50 at Progesterone receptor [1] is 195 nM.
